Assay [1] deals with KRAS-PI3Kα interaction (KRAS-Q25A binding to avi-tagged full length PI3Kα) (Homo sapiens (Human), UniProt P42336). The assay can be described thus: Disrupting KRAS-PI3Kα interaction by SPR inhibition assay. The settings on record: KRAS-Q25A at 20 μM, 25° C. The method, then: SPR binding experiments were collected on a Biacore 8K Instrument (Cytiva). Neutravidin (Pierce) was amine coupled to the carboxymethylated dextran surface of a CM5 sensor chip (Cytiva) using standard amine coupling chemistry. The CM5 chip surface was first activated with 0.1 M N-hydroxy succinimide and 0.4 M N-ethyl-N′-(3-dimethyl aminopropyl) carbodiimide at a flow rate of 20 μL/min using 20 mM HEPES pH 7.4, 150 mM NaCl as the running buffer. Next, neutravidin was diluted to 20 μg/mL in 10 mM sodium acetate (pH 4.5) and injected on all flow cells until a density of approximately 10,000 response units (RU) was immobilized. Activated amine groups were quenched with an injection of 1 M ethanolamine (pH 8.0). 300-500 RU of avi-tagged full length PI3Kα was captured on all flow cells in 20 mM HEPES pH 7.4, 150 mM NaCl, 5 mM MgCl2, 1 mM TCEP, 0.05% tween 20, 5% DMSO buffer. KRAS-Q25A at 20 μM was mixed with 8 concentrations of compound (50 nM-100 μM) and injected over the full-length PI3Kα at 30 μL/min and 25° C. Steady-state levels of KRAS binding were recorded and fit with a 4-parameter inhibition model to determine the IC50 values.
Background: SPR reads the build-up and loss of mass on a sensor chip optically.

For assay [2], the system named is pAKT in Tet-on KRAS G12D HeLa cells. Briefly: Cell-based pAKT HTRF assay in Tet-on KRAS G12D HeLa cells. The settings on record: Tet-on KRAS G12D HeLa cells; read-out: pAKT inhibition IC50 in Tet-on KRAS G12D HeLa cells. The method, then: To determine the effectiveness of compounds in disrupting PIK3CA/KRAS signaling in cells, we implemented pAKT HTRF assay (Perkin-Elmer) in Tet-on KRAS G12D HeLa cells.
On Day 1, cells were seeded into 96-well plates at 2×10^4 cells/well in complete growth media (DMEM, 10% Tet-Screened FBS) supplemented with 200 ng/mL doxycycline.
On Day 2, cells were treated with compounds at 0.25% DMSO. The source plate was created with compounds diluted in media at 5-fold the final assay concentration. The compounds are run in a 9-point concentration curve starting at 75 μM, with a 3-fold dilution between concentrations. […] 20 μL was transferred onto the cell plates (final volume in wells was 100 μL). Plates were harvested after 30 min and 4 hr incubation by aspirating media and adding kit-supplied 1× supplemented lysis buffer to all wells (50 μL per well). This then changed to 4 hr only when compounds became covalent. Plates were then placed on a plate shaker and incubated at 850 rpm for an additional 30 min. The antibody mixture solution was prepared by diluting aliquoted d2 and Eu Cryptate antibodies 1:20 in kit supplied detection buffer, then mixed the diluted antibodies solutions (1:1 v:v). 4 μL of this solution was then added to a 384-well detection plate (Perkin Elmer; 6008230). Samples were homogenized by pipetting up and down and then transferred (16 μL of cell lysates) from the 96-well cell culture plate to two wells of the HTRF 384-well detection plate containing the antibody solution. Plates were centrifuged (524 g for 1 min) and allowed to incubate between 4 and 24 h at room temperature. The maximum signal is reached after 4 h incubation time and remains stable over a period of 24 hours. Therefore, readings can be made between 4 and 24 h of incubation. Plates were centrifuged again (524 g for 1 min), and analyzed on the EnVision plate reader using the following settings: Excitation 320 nm, Bandwidth […]; Emission 615 nm, Bandwidth […], Gain 100%, Flashes 100, Lag 60 μs.

In assay [3] the target is Cys242 in human PIK3CA (157-299) (Homo sapiens (Human), UniProt P42336). Briefly: Covalent modification assay using MALDI-TOF MS. The settings on record: 4 h reaction time point; 3.33 μM protein target, 1:7.5 protein to compound ratio (compounds 1-852). The format is biochemical. The gist of the method: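 Covalent adduct formation was read by linear-mode MALDI-TOF with sinapinic acid matrix, reported as modified-protein peak height divided by total protein peak heights. Reactions held PIK3CA (157-299) at 1 or 3.33 μM in HEPES/NaCl/MgCl2 buffer, pH 7.3, sampled after 15 min to 4 h at room temperature.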

Another assay deals with pAKT in BT474 cells. The assay can be described thus: Cell-based pAKT HTRF assay in BT474 cells. The following applies: BT474 cells, 4 hr incubation, Compounds 10-999, read-out: pAKT inhibition IC50 in BT474 cells. The gist of the method: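 Cells grown in DMEM with 10% FBS were exposed to compounds for 4 hr in 0.25% DMSO, using a 9-point, 3-fold dilution series that starts at 3 μM. Lysates were incubated with d2 and Eu Cryptate antibodies for 4–24 h at room temperature, and HTRF was read at 615 nm emission.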
(In TR-FRET formats the signal depends on donor and acceptor labels being close together.)

Read-outs that look alike come from different tables or passages of the source.

KRAS-PI3Kα interaction (KRAS-Q25A binding to avi-tagged full length PI3Kα), sequence (P42336 whole entry, looked up, stated change not applied): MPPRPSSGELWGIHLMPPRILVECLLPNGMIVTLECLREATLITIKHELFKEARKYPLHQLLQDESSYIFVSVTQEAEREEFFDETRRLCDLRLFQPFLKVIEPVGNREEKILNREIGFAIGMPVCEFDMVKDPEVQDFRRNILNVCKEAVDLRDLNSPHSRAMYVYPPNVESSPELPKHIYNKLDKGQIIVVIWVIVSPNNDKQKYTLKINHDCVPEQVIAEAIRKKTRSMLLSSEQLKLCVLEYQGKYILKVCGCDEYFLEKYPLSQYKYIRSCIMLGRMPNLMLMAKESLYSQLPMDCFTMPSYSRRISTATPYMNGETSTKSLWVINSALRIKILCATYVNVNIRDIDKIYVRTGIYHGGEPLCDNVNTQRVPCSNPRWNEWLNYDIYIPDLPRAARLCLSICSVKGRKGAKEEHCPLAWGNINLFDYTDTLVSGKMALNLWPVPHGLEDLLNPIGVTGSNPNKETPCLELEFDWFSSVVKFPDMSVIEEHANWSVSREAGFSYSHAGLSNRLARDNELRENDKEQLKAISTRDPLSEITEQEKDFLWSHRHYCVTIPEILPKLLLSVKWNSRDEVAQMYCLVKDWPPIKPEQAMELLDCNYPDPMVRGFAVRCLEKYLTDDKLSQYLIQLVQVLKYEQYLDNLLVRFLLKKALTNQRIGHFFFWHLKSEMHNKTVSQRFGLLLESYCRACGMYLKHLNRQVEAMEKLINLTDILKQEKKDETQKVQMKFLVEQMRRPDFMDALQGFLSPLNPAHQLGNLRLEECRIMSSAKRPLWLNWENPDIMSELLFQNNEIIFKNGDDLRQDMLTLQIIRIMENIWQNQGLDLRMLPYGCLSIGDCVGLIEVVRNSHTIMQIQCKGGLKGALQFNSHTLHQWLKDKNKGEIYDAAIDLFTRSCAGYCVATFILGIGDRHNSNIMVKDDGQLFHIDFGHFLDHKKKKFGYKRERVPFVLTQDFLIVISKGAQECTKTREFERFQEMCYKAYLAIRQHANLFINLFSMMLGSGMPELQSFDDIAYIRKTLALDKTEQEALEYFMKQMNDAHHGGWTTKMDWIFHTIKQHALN
KRAS-PI3Kα interaction (KRAS-Q25A binding to avi-tagged full length PI3Kα), sequence (P27986 whole entry partner, looked up): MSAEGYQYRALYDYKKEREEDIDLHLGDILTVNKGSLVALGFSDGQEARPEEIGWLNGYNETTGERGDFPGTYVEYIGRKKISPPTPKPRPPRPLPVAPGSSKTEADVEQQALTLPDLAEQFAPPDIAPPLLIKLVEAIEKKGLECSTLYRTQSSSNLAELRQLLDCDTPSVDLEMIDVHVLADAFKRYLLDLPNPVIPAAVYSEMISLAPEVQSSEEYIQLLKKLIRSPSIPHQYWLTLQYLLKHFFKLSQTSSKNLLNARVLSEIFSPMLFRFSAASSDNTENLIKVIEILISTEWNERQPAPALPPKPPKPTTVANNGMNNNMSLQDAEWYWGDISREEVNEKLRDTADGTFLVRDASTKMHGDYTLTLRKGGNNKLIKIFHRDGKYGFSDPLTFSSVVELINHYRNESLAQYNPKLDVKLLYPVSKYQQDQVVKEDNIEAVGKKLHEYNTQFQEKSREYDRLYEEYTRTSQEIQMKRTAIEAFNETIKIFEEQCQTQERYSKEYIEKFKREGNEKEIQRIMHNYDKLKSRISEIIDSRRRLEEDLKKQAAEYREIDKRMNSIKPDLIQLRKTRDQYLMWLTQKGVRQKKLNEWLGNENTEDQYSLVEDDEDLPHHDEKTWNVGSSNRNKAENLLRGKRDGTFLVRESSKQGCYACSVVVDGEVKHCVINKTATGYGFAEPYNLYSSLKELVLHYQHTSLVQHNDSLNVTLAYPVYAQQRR
Cys242 in human PIK3CA (157-299), sequence (P42336 157-299): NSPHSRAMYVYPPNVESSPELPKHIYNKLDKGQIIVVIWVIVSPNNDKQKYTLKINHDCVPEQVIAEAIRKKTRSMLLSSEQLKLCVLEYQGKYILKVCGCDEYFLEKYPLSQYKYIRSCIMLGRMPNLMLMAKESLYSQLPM

Usually IC50 stands for the concentration that inhibits the measured activity by half. As for `CCC(=O)Nc1cccc(-c2nc(-c3ccc4c(c3)CCNC4)c3ccsc3c2-c2ccc(F)cc2OCCOC)c1` [compound 29], the IC50 in assay [1] is less than 5 µM; in assay [2], 1 to 10 µM.
Take `COCCOc1cc(F)ccc1-c1c(-c2cccc(C(=O)N3CCCC3)c2)nc(-c2ccc3c(c2)CCNC3)c2ccsc12` [compound 15]: the IC50 in assay [1] is less than 5 µM; in assay [2] it was 1 to 10 µM.
The like results for `CCC(=O)NCc1cccc(-c2nc(-c3ccc4c(c3)CCNC4)c3ccsc3c2-c2ccc(F)cc2OCCOC)c1` [compound 9] were, in that order, 5 to 25 µM and 1 to 10 µM.
In the case of `C=CC(=O)Nc1cccc(-c2nc(-c3ccc4c(c3)CCN(C)C4)c3ccsc3c2-c2ccc(F)cc2OCCOC)c1` [compound 32], the IC50 in assay [1] was 5 to 25 µM; in assay [2], less than 1 µM. Further, the “% of modification” value in assay [3] was “A (percent of modification of PIK3CA protein ≥75%)”.
For `C=CC(=O)Nc1cccc(-c2nc(-c3cnn(C)c3)c3ccsc3c2-c2ccc(F)cc2OCCOC)c1` [compound 52], the 50% inhibitory concentration (IC50) was in the range of 5 to 25 µM in assay [1] and 100 to 1000 nM with pAKT in BT474 cells. Besides, the “% of modification” value in assay [3] is given as “A (percent of modification of PIK3CA protein ≥75%)”.
For `COCCOc1cc(F)ccc1-c1c(-c2cnn(CC(C)(C)C)c2)nc(-c2ccc3c(c2)CCNC3)c2ccsc12` [compound 13], the results for the IC50 in assay [1] and in assay [2] were 5 to 25 µM and 1 to 10 µM, respectively.
As to `C=CC(=O)N1CCC(n2cc(-c3nc(-c4cnn(C)c4)c4ccsc4c3-c3ccc(F)cc3OCCOC)cn2)CC1` [compound 49], the figures for the IC50 (in assay [1]; in the assay on pAKT in BT474 cells) were more than 25 µM and 100 to 1000 nM, respectively. In assay [3], the “% of modification” value is on record as “A (percent of modification of PIK3CA protein ≥75%)”.
For the molecule `COCCOc1cc(F)ccc1-c1c(-c2cccc(NC(=O)C(C)C)c2)nc(-c2ccc3c(c2)CCNC3)c2ccsc12` [compound 33], the IC50 in assay [1] is less than 5 µM; in assay [2], 1 to 10 µM.
As for `COCCOc1cc(F)ccc1-c1c(-c2cccc(CNC(=O)C(C)C)c2)nc(-c2ccc3c(c2)CCNC3)c2ccsc12` [compound 10], the IC50 in assay [1] was less than 5 µM; in assay [2], 1 to 10 µM; with pAKT in BT474 cells, 1000 to 3000 nM.
In the case of `C=CC(=O)N1CC[C@@H](n2cc(-c3nc(-c4ccc5c(c4)CCNC5)c4ccsc4c3-c3ccc(F)cc3OCCOC)cn2)C1` [compound 46], the IC50 in assay [1] is 5 to 25 µM; in assay [2] it was less than 1 µM. For the same molecule, the “% of modification” value in assay [3] is “A (percent of modification of PIK3CA protein ≥75%)”.
As to `C=CC(=O)Nc1ccc2nc(-c3nc(-c4ccc5c(c4)CCNC5)c4ccsc4c3-c3ccc(F)cc3OCCOC)[nH]c2c1` [Compound 23, N-[2-[7-[4-fluoro-2-(2-methoxyethoxy)phenyl]-4-(1,2,3,4-tetrahydroisoquinolin-6-yl)thieno[3,2-c]pyridin-6-yl]-3H-benzimidazol-5-yl]prop-2-enamide], the IC50 is more than 25 µM in assay [1] and 1000 to 3000 nM in the assay with pAKT in BT474 cells (Homo sapiens, BT-474). Besides, the “% of modification” value in assay [3] is reported as “A (percent of modification of PIK3CA protein ≥75%)”.
Turning to `COCCOc1cc(F)ccc1-c1c(-c2cnn(CCC(=O)NC(C)(C)C)c2)nc(-c2ccc3c(c2)CCNC3)c2ccsc12` [compound 41], the results for the IC50 in assay [1] and in assay [2] were 5 to 25 µM and 1 to 10 µM, respectively.
`C=CC(=O)N1CCC(n2cc(-c3nc(-c4ccc5c(c4)CCNC5)c4ccsc4c3-c3ccc(F)cc3OCCOC)cn2)C1` (stereo not drawn) [compound 28]: the IC50 in assay [1] was 5 to 25 µM; with pAKT in BT474 cells, less than 100 nM. The “% of modification” value in assay [3] is “A (percent of modification of PIK3CA protein ≥75%)”.
The corresponding values for `C=CC(=O)NC1CC(n2cc(-c3nc(-c4ccc5c(c4)CCNC5)c4ccsc4c3-c3ccc(F)cc3OCCOC)cn2)C1` (stereo not drawn) [compound 60] are 5 to 25 µM, 100 to 1000 nM and “A (percent of modification of PIK3CA protein ≥75%)”.
With `C=CC(=O)N1CC[C@H](n2cc(-c3nc(-c4cnn(C)c4)c4ccsc4c3-c3ccc(F)cc3OCCOC)cn2)C1` [compound 53], the IC50 in assay [1] is 5 to 25 µM; in the assay with pAKT in BT474 cells it was 100 to 1000 nM. Further, the “% of modification” value in assay [3] is given as “A (percent of modification of PIK3CA protein ≥75%)”.
The corresponding values for `C=CC(=O)N1CCC(n2cc(-c3nc(-c4ccc5c(c4)CNC(=O)C5)c4ccsc4c3-c3ccc(F)cc3OCCOC)cn2)CC1` [compound 50] are 5 to 25 µM, less than 100 nM and “A (percent of modification of PIK3CA protein ≥75%)”.
With `C=CC(=O)N1CC[C@H](n2cc(-c3nc(-c4ccc5c(c4)CNC(=O)C5)c4ccsc4c3-c3ccc(F)cc3OCCOC)cn2)C1` [compound 54], the IC50 is 5 to 25 µM in assay [1] and less than 100 nM in the assay with pAKT in BT474 cells. Besides, in assay [3], the “% of modification” value is listed as “A (percent of modification of PIK3CA protein ≥75%)”.
The like results for `C=CC(=O)NC1CC(n2cc(-c3nc(-c4ccc5c(c4)CCNC5)c4ccsc4c3-c3ccc(F)cc3OCCOC)cn2)C1` (stereo not drawn) [compound 55] were, in that order, 5 to 25 µM, 100 to 1000 nM and “A (percent of modification of PIK3CA protein ≥75%)”.
In the case of `COCCOc1ccccc1-c1c(-c2cccc(Cl)c2)nc(-c2ccc3c(c2)CCNC3)c2ccsc12` [compound 6], the IC50 was in the range of 5 to 25 µM in assay [1] and 1 to 10 µM in assay [2].
For `COCCOc1cc(F)ccc1-c1c(-c2cccc(C(=O)NC(C)C)c2)nc(-c2ccc3c(c2)CCNC3)c2ccsc12` [compound 17], the values for the IC50 in assay [1] and in assay [2] were 5 to 25 µM and 1 to 10 µM, respectively.
In the case of `COCCOc1cc(F)ccc1-c1c(-c2cccc(CNC(=O)C(C)(C)C)c2)nc(-c2ccc3c(c2)CCNC3)c2ccsc12` [compound 18], the values for the IC50 in assay [1] and in assay [2] were less than 5 µM and 1 to 10 µM, respectively.
With `COCCOc1cc(F)ccc1-c1c(-c2cccc(C#N)c2)nc(-c2ccc3c(c2)CCNC3)c2ccsc12` [Compound 8], the figures for the IC50 in assay [1] and in assay [2] were more than 25 µM and more than 10 µM, respectively.
The like results for `C=CC(=O)N1CC(Cn2cc(-c3nc(-c4ccc5c(c4)CCNC5)c4ccsc4c3-c3ccc(F)cc3OCCOC)cn2)C1` [compound 48] were, in that order, 5 to 25 µM and less than 1 µM.
The corresponding values for `COCCOc1cc(F)ccc1-c1c(-c2cccc(CNC(=O)CC(C)(C)C)c2)nc(-c2ccc3c(c2)CCNC3)c2ccsc12` [compound 19] are less than 5 µM and more than 10 µM.
Regarding `COCCOc1cc(F)ccc1-c1c(-c2cccc(CN)c2)nc(-c2ccc3c(c2)CCNC3)c2ccsc12` [compound 16], the IC50 in assay [1] is 5 to 25 µM; in assay [2], 1 to 10 µM.
`Fc1ccc(-c2c(-c3ccccc3)nc(-c3ccc4c(c3)CCNC4)c3ccsc23)c(OCc2ncccc2F)c1` [compound 7]: the results for the IC50 in assay [1] and in assay [2] were 5 to 25 µM and 1 to 10 µM, respectively.
`COCCOc1cc(F)ccc1-c1c(-c2cccc(CNC(=O)C(C)C)c2)nc(-c2ccc3c(c2)CCNC3)c2ccsc12` [compound 14]: the IC50 in assay [1] is 5 to 25 µM; in assay [2], more than 10 µM.

The values are drawn from US20250230138A1, “COMPOUNDS HAVING A T-STRUCTURE FORMED BY AT LEAST FOUR CYCLES FOR USE IN THE TREATMENT OF CANCER AND OTHER INDICATIONS” (TheRas, Inc., priority 2022, published 2025).
